According to US6852673B2, “Herbicidal pyridine compounds” (BASF Aktiengesellschaft, priority 1998, dated 2005):

Key:
Format in all cases: in vivo
[1] = test system: Hordeum vulgare (HORVW); assay: Pre-emergence herbicidal evaluation, winter barley
Text: (§1) The pre-emergence herbicidal activity of the compounds of the present invention is exemplified by the following test in which the seeds of a variety of monocotyledonous and dicotyledonous plants are seperately mixed with potting soil and planted on top of approximately one inch of soil in separate pots. After planting, the pots are sprayed with the selected aqueous acetone solution containing test compound in sufficient quantity to provide the equivalent of about 0.0125 to 0.4 kg per hectare of test compound per pot. The treated pots are then placed on greenhouse benches, watered and cared for in accordance with conventional greenhouse procedures. From 2 to 4 weeks after treatment, the tests are terminated and each pot is examined and rated according to the rating system set forth below.

[2] = test system: Triticum aestivum (TRZAW); assay: Pre-emergence herbicidal evaluation, winter wheat
Text: as §1

[3] = test system: Abutilon theophrasti (ABUTH); assay: Pre-emergence herbicidal evaluation, velvetleaf
Text: as §1

[4] = test system: Ipomoea hederacea (IPOHE); assay: Pre-emergence herbicidal evaluation, morning glory
Text: as §1

[5] = test system: Lamium purpureum (LAMPU); assay: Pre-emergence herbicidal evaluation, purple deadnettle
Text: as §1

[6] = test system: Matricaria inodora (MATIN); assay: Pre-emergence herbicidal evaluation, mayweed
Text: as §1

[7] = test system: Solanum nigrum (SOLNI); assay: Pre-emergence herbicidal evaluation, black nightshade
Text: as §1

[8] = test system: Stellaria media (STEME); assay: Pre-emergence herbicidal evaluation, chickweed
Text: as §1

[9] = test system: Alopecurus myosuroides (ALOMY); assay: Pre-emergence herbicidal evaluation, black grass
Text: as §1

[10] = test system: Digitaria sanguinalis (DIGSA); assay: Pre-emergence herbicidal evaluation, large crabgrass
Text: as §1

[11] = test system: Setaria viridis (SETVI); assay: Pre-emergence herbicidal evaluation, green foxtail
Text: as §1

[12] = test system: Galium aparine (GALAP); assay: Pre-emergence herbicidal evaluation, cleaver
Text: as §1

`CC(Cl)=CCOc1cc(C#N)cc(Oc2csc(C(F)(F)F)c2)n1` [Example 28] was tested, and the HORVW rating ([1]; dose 0.025 kg/ha) was 0 (0 - No effect), the HORVW rating ([1]; dose 0.1 kg/ha) was 1 (1 - Trace effect) and the HORVW rating ([1]; dose 0.4 kg/ha) was 3 (3 - Moderate effect). The TRZAW rating ([2]; dose 0.025 kg/ha) was 0 (0 - No effect), the TRZAW rating ([2]; dose 0.1 kg/ha) was 0 (0 - No effect) and the TRZAW rating ([2]; dose 0.4 kg/ha) was 1 (1 - Trace effect). For the same molecule, the ABUTH rating ([3]; dose 0.025 kg/ha) was 5 (5 - Definite injury), the ABUTH rating ([3]; dose 0.1 kg/ha) was 7 (7 - Good herbicidal effect) and the ABUTH rating ([3]; dose 0.4 kg/ha) was 8 (8 - Approaching complete kill). The IPOHE rating ([4]; dose 0.025 kg/ha) was 0 (0 - No effect), the IPOHE rating ([4]; dose 0.1 kg/ha) was 0 (0 - No effect) and the IPOHE rating ([4]; dose 0.4 kg/ha) was 1 (1 - Trace effect). The LAMPU rating ([5]; dose 0.025 kg/ha) was 5 (5 - Definite injury), the LAMPU rating ([5]; dose 0.1 kg/ha) was 8 (8 - Approaching complete kill) and the LAMPU rating ([5]; dose 0.4 kg/ha) was 8 (8 - Approaching complete kill). For the same molecule, the MATIN rating ([6]; dose 0.025 kg/ha) was 9 (9 - Complete kill), the MATIN rating ([6]; dose 0.1 kg/ha) was 9 (9 - Complete kill) and the MATIN rating ([6]; dose 0.4 kg/ha) was 9 (9 - Complete kill). For the same molecule, the SOLNI rating ([7]; dose 0.025 kg/ha) was 4 (4 - Injury), the SOLNI rating ([7]; dose 0.1 kg/ha) was 8 (8 - Approaching complete kill) and the SOLNI rating ([7]; dose 0.4 kg/ha) was 8 (8 - Approaching complete kill). For the same molecule, the STEME rating ([8]; dose 0.025 kg/ha) was 9 (9 - Complete kill), the STEME rating ([8]; dose 0.1 kg/ha) was 9 (9 - Complete kill) and the STEME rating ([8]; dose 0.4 kg/ha) was 9 (9 - Complete kill). For the same molecule, the ALOMY rating ([9]; dose 0.025 kg/ha) was 3 (3 - Moderate effect), the ALOMY rating ([9]; dose 0.1 kg/ha) was 8 (8 - Approaching complete kill) and the ALOMY rating ([9]; dose 0.4 kg/ha) was 9 (9 - Complete kill). The DIGSA rating ([10]; dose 0.025 kg/ha) was 3 (3 - Moderate effect), the DIGSA rating ([10]; dose 0.1 kg/ha) was 9 (9 - Complete kill) and the DIGSA rating ([10]; dose 0.4 kg/ha) was 9 (9 - Complete kill).

`CC(Cl)=CCOc1nc(Oc2cc(C(F)(F)F)nn2C)c(F)c(C)c1F` [Example 35] was tested, and the TRZAW rating ([2]; dose 0.04 kg/ha) was 1 (1 - Trace effect), the TRZAW rating ([2]; dose 0.06 kg/ha) was 3 (3 - Moderate effect) and the TRZAW rating ([2]; dose 0.12 kg/ha) was 3 (3 - Moderate effect). For the same molecule, the MATIN rating ([6]; dose 0.04 kg/ha) was 9 (9 - Complete kill), the MATIN rating ([6]; dose 0.06 kg/ha) was 9 (9 - Complete kill) and the MATIN rating ([6]; dose 0.12 kg/ha) was 9 (9 - Complete kill). For the same molecule, the STEME rating ([8]; dose 0.04 kg/ha) was 8 (8 - Approaching complete kill), the STEME rating ([8]; dose 0.06 kg/ha) was 9 (9 - Complete kill) and the STEME rating ([8]; dose 0.12 kg/ha) was 9 (9 - Complete kill). The ALOMY rating ([9]; dose 0.04 kg/ha) was 9 (9 - Complete kill), the ALOMY rating ([9]; dose 0.06 kg/ha) was 9 (9 - Complete kill) and the ALOMY rating ([9]; dose 0.12 kg/ha) was 9 (9 - Complete kill). The SETVI rating ([11]; dose 0.04 kg/ha) was 8 (8 - Approaching complete kill), the SETVI rating ([11]; dose 0.06 kg/ha) was 9 (9 - Complete kill) and the SETVI rating ([11]; dose 0.12 kg/ha) was 9 (9 - Complete kill).

With `C=C(Cl)COc1cc(C)cc(Oc2cc(C(F)(F)F)nn2C)n1` [Example 36] the HORVW rating ([1]; dose 0.025 kg/ha) was 2 (2 - Slight effect), the HORVW rating ([1]; dose 0.1 kg/ha) was 3 (3 - Moderate effect) and the HORVW rating ([1]; dose 0.4 kg/ha) was 5 (5 - Definite injury). For the same molecule, the TRZAW rating ([2]; dose 0.025 kg/ha) was 0 (0 - No effect), the TRZAW rating ([2]; dose 0.1 kg/ha) was 2 (2 - Slight effect) and the TRZAW rating ([2]; dose 0.4 kg/ha) was 2 (2 - Slight effect). The ABUTH rating ([3]; dose 0.025 kg/ha) was 5 (5 - Definite injury), the ABUTH rating ([3]; dose 0.1 kg/ha) was 5 (5 - Definite injury) and the ABUTH rating ([3]; dose 0.4 kg/ha) was 8 (8 - Approaching complete kill). The GALAP rating ([12]; dose 0.025 kg/ha) was 0 (0 - No effect), the GALAP rating ([12]; dose 0.1 kg/ha) was 3 (3 - Moderate effect) and the GALAP rating ([12]; dose 0.4 kg/ha) was 8 (8 - Approaching complete kill). For the same molecule, the IPOHE rating ([4]; dose 0.025 kg/ha) was 2 (2 - Slight effect), the IPOHE rating ([4]; dose 0.1 kg/ha) was 3 (3 - Moderate effect) and the IPOHE rating ([4]; dose 0.4 kg/ha) was 9 (9 - Complete kill). For the same molecule, the LAMPU rating ([5]; dose 0.025 kg/ha) was 7 (7 - Good herbicidal effect), the LAMPU rating ([5]; dose 0.1 kg/ha) was 8 (8 - Approaching complete kill) and the LAMPU rating ([5]; dose 0.4 kg/ha) was 9 (9 - Complete kill). For the same molecule, the MATIN rating ([6]; dose 0.025 kg/ha) was 7 (7 - Good herbicidal effect), the MATIN rating ([6]; dose 0.1 kg/ha) was 9 (9 - Complete kill) and the MATIN rating ([6]; dose 0.4 kg/ha) was 9 (9 - Complete kill). The STEME rating ([8]; dose 0.025 kg/ha) was 5 (5 - Definite injury), the STEME rating ([8]; dose 0.1 kg/ha) was 9 (9 - Complete kill) and the STEME rating ([8]; dose 0.4 kg/ha) was 9 (9 - Complete kill). For the same molecule, the ALOMY rating ([9]; dose 0.025 kg/ha) was 4 (4 - Injury), the ALOMY rating ([9]; dose 0.1 kg/ha) was 8 (8 - Approaching complete kill) and the ALOMY rating ([9]; dose 0.4 kg/ha) was 9 (9 - Complete kill). The DIGSA rating ([10]; dose 0.025 kg/ha) was 8 (8 - Approaching complete kill), the DIGSA rating ([10]; dose 0.1 kg/ha) was 9 (9 - Complete kill) and the DIGSA rating ([10]; dose 0.4 kg/ha) was 9 (9 - Complete kill). The SETVI rating ([11]; dose 0.025 kg/ha) was 9 (9 - Complete kill), the SETVI rating ([11]; dose 0.1 kg/ha) was 9 (9 - Complete kill) and the SETVI rating ([11]; dose 0.4 kg/ha) was 9 (9 - Complete kill).
